# Data taken from paper PMC12029786 (2025).
# What was measured:
# [1] = test system: m3 mutant of Karashi RNA (RNA, aptamer) GGGCUGCCUGAAGAGCAGUAGCGAGUAGGGCACAAGCUUCGGCUUGUAGGAAGUAAAUGUGCAAAUCCGUAACUAGCCU; assay: fluorescence enhancement; conditions: 10 mM Mg2+; 40 mM Tris-Cl pH 7.5, 37 °C; 0.1 μM RNA, 0.1 μM DMHBI
# [2] = test system: Karashi (17-3min RNA) (RNA, aptamer) GGGCUGAAUGAAGAGCAGUAGCGAGUAGUUCACAAGCUUCGGCUUGUAGGAAGUAAAUGUGCAAAUCCGUAACUAGCCU; assay: fluorescence enhancement; conditions: 10 mM Mg2+; 40 mM Tris-Cl pH 7.5, 37 °C; 0.1 μM RNA, 0.1 μM DMHBI
# [3] = test system: Karashi G69A (RNA, aptamer) GGGCUGAAUGAAGAGCAGUAGCGAGUAGUUCACAAGCUUCGGCUUGUAGGAAGUAAAUGUGCAAAUCCAUAACUAGCCU; assay: fluorescence enhancement; conditions: 10 mM Mg2+; 40 mM Tris-Cl pH 7.5, 37 °C; 0.1 μM RNA, 0.1 μM DMHBI
# [4] = test system: Karashi A51G (RNA, aptamer) GGGCUGAAUGAAGAGCAGUAGCGAGUAGUUCACAAGCUUCGGCUUGUAGGGAGUAAAUGUGCAAAUCCGUAACUAGCCU; assay: fluorescence enhancement; conditions: 10 mM Mg2+; 40 mM Tris-Cl pH 7.5, 37 °C; 0.1 μM RNA, 0.1 μM DMHBI
# [5] = test system: fr-1 RNA + fr-2 RNA (RNA, aptamer) GGUUUCCCCGAAGAGCAGUAGCGAGUAGGGGCCCAGCU/GGCUGGGAGGAAGUAAAUGUGCAAAUCCGUAACUAAACU; assay: fluorescence enhancement; conditions: 10 mM Mg2+; 40 mM Tris-Cl pH 7.5, 37 °C; 0.1 μM each RNA, 0.1 μM DMHBI
# [6] = test system: m1 mutant of 17-3min RNA (RNA, aptamer) GGGCUGUUUGAAGAGCAGUAGCGAGUAGAACACAAGCUUCGGCUUGUAGGAAGUAAAUGUGCAAAUCCGUAACUAGCCU; assay: fluorescence enhancement; conditions: 10 mM Mg2+; 40 mM Tris-Cl pH 7.5, 37 °C; 0.1 μM RNA, 0.1 μM DMHBI
# [7] = test system: 17-3minCP (RNA, aptamer) GGGCUUGUAGGAAGUAAAUGUGCAAAUCCGUAACUAGCUUCGGCUGAAUGAAGAGCAGUAGCGAGUAGUUCACAAGCCU; assay: fluorescence enhancement; conditions: 10 mM Mg2+; 40 mM Tris-Cl pH 7.5, 37 °C; 0.1 μM RNA, 0.1 μM DMHBI
# [8] = test system: Jigarashi RNA (RNA, aptamer) GGUUUCCCCGAAGAGCAGUAGCGAGUAGGGGCCCAGCUUCGGCUGGGAGGAAGUAAAUGUGCAAAUCCGUAACUAAACU; assay: fluorescence enhancement; conditions: 10 mM Mg2+; 40 mM Tris-Cl pH 7.5, 37 °C; 0.1 μM RNA, 0.1 μM DMHBI
# [9] = test system: 17-3 RNA (RNA, aptamer) GGGAGACGCAACUGAAUGAAGAGCAGUAGCGAGUAGUUCACAAGAGCUGCUUCGGCAGGAUCUUGUAGGAAGUAAAUGUGCAAAUCCGUAACUAGUCGCGUCAC; assay: fluorescence enhancement titration; conditions: 50 mM Mg2+; 40 mM Tris-Cl pH 7.5, 37 °C; 5 nM DMHBI titrated with RNA; Hill fit
smiles,measurement,setting,value
COc1cc(/C=C2\N=C(C)N(C)C2=O)cc(OC)c1O,binding,[1],yes
same,binding,[2],yes
same,binding,[3],yes
same,binding,[4],yes
same,binding,[5],yes
same,binding,[6],yes
same,binding,[7],yes
same,binding,[8],yes
same,Kd,[9],43 nM
